Source: patent publication US20080146555A1, “Uses of Kinase Inhibitors and Compositions Thereof” (GPC Biotech, Inc, priority 2004, published 2008)
Counter-ions that a name gives are not always drawn. Like-named read-outs stand apart in the source and are kept apart here.

What was measured:
MKK6 = molecular target: T1, MKK6 (Homo sapiens, UniProt P52564); assay: MKK6 kinase assay; format: biochemical
T1 construct: purchased Upstate 14-303
T1 sequence (P52564 1-334): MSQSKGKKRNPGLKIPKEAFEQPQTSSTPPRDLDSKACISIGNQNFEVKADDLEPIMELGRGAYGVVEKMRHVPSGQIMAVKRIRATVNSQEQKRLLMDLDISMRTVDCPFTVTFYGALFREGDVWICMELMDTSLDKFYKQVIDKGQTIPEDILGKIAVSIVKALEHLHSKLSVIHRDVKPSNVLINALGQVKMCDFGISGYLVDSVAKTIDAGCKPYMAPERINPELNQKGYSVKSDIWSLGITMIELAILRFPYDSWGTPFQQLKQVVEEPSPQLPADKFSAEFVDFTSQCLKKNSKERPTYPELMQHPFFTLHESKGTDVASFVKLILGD
Protocol: • 1. Reaction Buffer (RB): 50 mM Tris-HCl, pH 7.5, 0.1 mM EGTA, 0.1% 2-mercaptoethanol, 0.1 mM sodium orthovanadate, 10 mM MgAc. • 2. Magnesium/ATP Cocktail (Catalog #20-113): 500 μM cold ATP and 75 mM magnesium chloride in 20 mM MOPS, pH 7.2, 25 mM β-glycerol phosphate, 5 mM EGTA, 1 mM sodium orthovanadate, 1 mM dithiothreitol. • 3. MKK6/SKK3, active: Dilute to 10 ng/μl with Reaction Buffer containing 0.03% Brij-35. Use 5 μl (50 ng) per assay point. • 4. p38a/SAPK2a, unactive (Catalog #14-252): Use 4 μl per assay point. • 5. Myelin Basic Protein (MBP, Catalog #13-104): Prepare a 2 mg/ml stock solution in 20 mM MOPS, pH 7.2, 25 mM β-glycerol phosphate, 5 mM EGTA, 1 mM sodium orthovanadate, 1 mM dithiothreitol. Use 10 μl per assay point. • 6. [γ-^32P]ATP: Stock 1 mCi/100 μl (3000 Ci/mmol, obtained from Perkin Elmer, Catalog #BLU002A). Make 10 μl aliquots (100 μCi/vial). Before starting the assay, dilute the Magnesium/ATP Cocktail 1:1 with sterile, distilled water. Then dilute an aliquot of [γ-^32P]ATP to 1 μCi/μl with 90 μl of the diluted Magnesium/ATP Cocktail. […]
• 1. On ice, add 1 μl RB to a microcentrifuge tube. • 2. Add 4 μl (2 μg) p38α/SAPK2a, unactive. • 3. Add 10 μl of Magnesium/ATP Cocktail. • 4. Add 5 μl (50 ng) MKK6/SKK3, active. • 5. Incubate for 30 minutes shaking at 30° C. • 6. Place on ice and proceed to Stage Two.
• 1. Remove 10 μL of the mixture prepared in Stage One and add to a new microcentrifuge tube. • 2. Add 20 μl of RB. • 3. Add 10 μl of MBP. • 4. Add 10 μl of the diluted [γ-^32P] ATP mixture (1 μCi/μl). • 5. Incubate for 15 minutes shaking at 30° C. • 6. Spot 40 μl on a 2 cm×2 cm P81 paper. • 7. Wash assay squares three times with 0.75% phosphoric acid for 5 minutes per wash. • 8. Wash assay squares once with acetone for five minutes. • 9. Transfer the assay squares to a scintillation vial and add 5 ml scintillation cocktail. • 10. Read in scintillation counter. Compare cpm of enzyme samples to cpm of control samples that contain no active enzyme (background control).

[1] = test system: KU812 leukemia cells (Bcr-Abl); assay: Proliferation of KU812 cells, calcein assay by flow cytometry; format: cell-based; settings: Homo sapiens, KU812, 72 h, read-out: KU812 cells IC50 (proliferation)
Protocol: The proliferation of KU812 cells was assayed using the calcein viability assay described in Assay 3 but adapted for quantification by flow cytometry, briefly as follows: cells were recovered from sub-confluent plates by trypsinization and re-plated at a density of 1,000 cells/well in 24 well plates and incubated 24 hours to allow adherence. The media (RPMI-1640 supplemented with 10% FCS and Pen/Strep) was aspirated from each well and replaced with media containing the compound at a range from 0 to 0.250 μM. The plates were incubated for 3 days corresponding to approximately three cell cycles. Cellular viability was determined with the Calcein AM assay as follows. The cells were washed twice in PBS and incubated with 5 μM Calcein AM/PBS for 75 minutes before determining fluorescent units with a fluorescent plate reader. The Calcein AM assay was adapted for the flow cytometer by including an additional 1:16,000 dilution of the Calcein AM in PBS of which 200 ul was added to each sample of cells.

Abl T315I = molecular target: T2, Abl T315I (Homo sapiens, UniProt P00519, T315I); assay: Abl T315I kinase assay; format: biochemical
T2 construct: purchased Upstate 14-522
Protocol: • 1. 5× Reaction Buffer: 40 mM MOPS, pH 7.0, 1 mM EDTA. • 2. Enzyme Dilution Buffer (EDB): 20 mM MOPS, pH 7.0, 1 mM EDTA, 0.01% Brij-35, 5% glycerol, 0.1% β-mercaptoethanol, 1 mg/ml BSA. • 3. […] Use 2.5 μl per assay point. • 4. […] Use 2.5 μl per assay point for a final assay concentration of 50 μM per assay point. • 5. [γ-^32P]ATP: Stock 1 mCi/100 μl (3000 Ci/mmol, obtained from PerkinElmer, Cat. # BLU002A). Make 10 μl aliquots (100 μCi/vial).
• 1. Add 5 μl of 5× Reaction Buffer per assay. • 2. Add 2.5 μl of Abltide (50 μM). • 3. […] Add 5 μl sterile, distilled water. • 5. Add 10 μl of the diluted [γ-^32P]ATP solution. • 6. Incubate for 10 minutes at 30° C. • 7. Transfer a 20 μl aliquot onto the center of a 2 cm×2 cm P81 paper. • 8. […] Wash the assay squares once for 5 minutes with acetone. • 10. Transfer the assay squares to vial and add 5 ml scintillation cocktail. • 11. Read in scintillation counter. Compare cpm of enzyme samples to cpm of control samples that contain background control.

[2] = kinase panel, 10 μM ATP, read-out: MAPK 6 / MKK6 IC50
[3] = read-out: MAP2K6 Inhibition (IC50)
[4] = read-out: Inhibition (IC50), Table II (accession U07563, no symbol)

Row | SMILES | IC50 (MKK6; [2]) [µM] | IC50 (MKK6; [3]) [µM] | IC50 ([1]; 3 days, calcein AM, flow cytometry) [µM] | IC50 (Abl T315I; read-out: Abl T315I IC50) [µM] | IC50 (Abl T315I; [4]) [µM] | IC50 [1] [µM]
1 | COCCN1CCN(Cc2ccc(-c3n[nH]c4c3C(=O)c3c(NC(=O)NN5CCOCC5)cccc3-4)cc2)CC1 [Compound B16, N-[3-(4-{[4-(2-methoxyethyl)piperazinyl]methyl}phenyl)-4-oxoindeno[2,3-d]pyrazol-5-yl](morpholin-4-ylamino)carboxamide dihydrochloride] | < 0.1 | < 0.1 | 0.054 | ~0.1 | < 0.1 | –
2 | CC(C)N1CCN(C(=O)COc2ccc(-c3n[nH]c4c3C(=O)c3c(NC(=O)NN5CCOCC5)cccc3-4)cc2)CC1 [Compound A37] | 0.01 to 0.1 | < 0.5 | – | 0.087 | < 0.1 | 0.085
